Source: PMC9008576, “Characterization of Agarolytic Pathway in a Terrestrial Bacterium Cohnella sp. LGH” (Frontiers in Microbiology, 2022)

How the values were obtained:
AgWH2A = molecular target: T1, AgWH2A (Agarivorans gilvus, UniProt A0A2Z4WWH8); experiment: TLC of products; assay type: biochemical; conditions: 10 mM potassium phosphate pH 7.5, 30°C, 4 h; positive control enzyme
T1 construct: gene lacZ; pET29a (SalI/XhoI), E. coli BL21(DE3) pLysS, Ni-NTA (vector tags kept)
T1 sequence (A0A2Z4WWH8 1-753): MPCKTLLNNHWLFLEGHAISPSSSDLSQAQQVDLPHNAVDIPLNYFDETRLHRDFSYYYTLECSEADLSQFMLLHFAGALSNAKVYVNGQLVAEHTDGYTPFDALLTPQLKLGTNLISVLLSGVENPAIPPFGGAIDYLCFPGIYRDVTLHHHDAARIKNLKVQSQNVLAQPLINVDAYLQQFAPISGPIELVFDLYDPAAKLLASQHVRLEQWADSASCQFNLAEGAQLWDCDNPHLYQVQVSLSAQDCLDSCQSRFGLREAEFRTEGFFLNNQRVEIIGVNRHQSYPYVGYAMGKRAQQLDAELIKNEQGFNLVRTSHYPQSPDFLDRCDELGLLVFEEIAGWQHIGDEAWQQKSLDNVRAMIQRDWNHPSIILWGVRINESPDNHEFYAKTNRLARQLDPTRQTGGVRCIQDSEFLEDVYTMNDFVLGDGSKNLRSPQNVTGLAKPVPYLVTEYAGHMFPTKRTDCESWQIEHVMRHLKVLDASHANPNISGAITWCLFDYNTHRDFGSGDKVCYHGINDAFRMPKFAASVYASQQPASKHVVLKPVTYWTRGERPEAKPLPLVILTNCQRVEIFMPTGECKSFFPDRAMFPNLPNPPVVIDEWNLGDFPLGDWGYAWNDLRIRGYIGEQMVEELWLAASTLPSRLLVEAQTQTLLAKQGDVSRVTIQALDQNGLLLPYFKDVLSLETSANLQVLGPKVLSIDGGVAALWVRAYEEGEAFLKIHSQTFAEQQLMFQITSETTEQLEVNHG

CL4994 = system: T2, CL4994; experiment: agarotriose consumption, non-linear regression; assay type: biochemical, Cohnella sp. LGH; conditions: 10 mM potassium phosphate pH 7.0, 30°C, 10 min, 0.5–7.5 mg/ml substrate
T2 construct: pET29a (KpnI/XhoI), E. coli BL21(DE3) pLysS, Ni-NTA (vector tags kept); GH2

CL5012 = system: T3, CL5012; experiment: L-AHG release, non-linear regression; assay type: biochemical, Cohnella sp. LGH; conditions: 10 mM Tris-HCl pH 8.0, 35°C, 10 min, 0.5–7.5 mg/ml substrate
T3 construct: pET29a (NdeI/XhoI), E. coli BL21(DE3) pLysS, Ni-NTA (C-terminal His tag likely); GH117

Row | SMILES | TLC of products (AgWH2A) | Km (CL4994) [mg ml^–1] | Km (CL5012) [mg ml^–1]
1 | OC[C@H]1O[C@@H](O[C@H]2[C@H]3OC[C@@H]2O[C@@H](O[C@H]2[C@@H](O)[C@@H](CO)OC(O)[C@@H]2O)[C@H]3O)[C@H](O)[C@@H](O)[C@H]1O (stereo partly drawn) [agarotriose] | depolymerization products of agarotriose by the reported ABG AgWH2A | 3.90 | 
2 | OC[C@H]1OC(O)[C@H](O)[C@@H](O[C@@H]2O[C@H]3CO[C@@H]([C@@H]2O)[C@@H]3O)[C@H]1O (stereo partly drawn) [neoagarobiose] |  |  | 4.45
